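A five-concentration, 48-hour dose response in 96-well plates underlies each endpoint, interpolated linearly between surrounding concentrations. The concentration for 50% growth inhibition is given as GI50. TGI: total growth inhibition.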
Tests used:
Assay in all cases: inhibition of tumour cell growth, NCI panel, 48 h
[1] = test system: RXF 393 renal
[2] = test system: RPMI-8226 leukemia
[3] = test system: OVCAR-8 ovarian
[4] = test system: ACHN renal
[5] = test system: LOX IMVI melanoma
[6] = test system: UO-31 renal
[7] = test system: KM20L2 colon
[8] = test system: SNB-19 CNS
[9] = test system: LXFL 529 NSCLC
[10] = test system: M14 melanoma
[11] = test system: UACC-257 melanoma
[12] = test system: SK-MEL-5 melanoma
[13] = test system: NCI-H23 lung
[14] = test system: CCRF-CEM leukemia
[15] = test system: UACC-62 melanoma
[16] = test system: SF-268 CNS
[17] = test system: SN12C renal
[18] = test system: MALME-3M melanoma
[19] = test system: NCI-H460 lung
[20] = test system: DMS 114 small cell lung
[21] = test system: M19-MEL melanoma
[22] = test system: OVCAR-4 ovarian
[23] = test system: HCC-2998 colon
[24] = test system: K-562 leukemia
[25] = test system: SF-295 CNS
[26] = test system: SK-MEL-28 melanoma
[27] = test system: HOP-18 NSCLC
[28] = test system: SR leukemia
[29] = test system: EKVX NSCLC
[30] = test system: TK-10 renal
[31] = test system: NCI-H522 lung
[32] = test system: XF 498 CNS
[33] = test system: A549 NSCLC
[34] = test system: HT29 colon
[35] = test system: CAKI-1 renal
[36] = test system: SK-OV-3 ovarian
[37] = test system: COLO 205 colon
[38] = test system: MOLT-4 leukemia
[39] = test system: NCI-H226 lung
[40] = test system: KM12 colon
[41] = test system: DLD-1 colon
[42] = test system: A498 renal
[43] = test system: HCT-15 colon
[44] = test system: U251 CNS
[45] = test system: OVCAR-3 ovarian
[46] = test system: DMS 273 small cell lung
[47] = test system: SNB-75 CNS
[48] = test system: SF-539 CNS
[49] = test system: IGROV1 ovarian
[50] = test system: 786-0 renal
[51] = test system: HL-60(TB) leukemia
[52] = test system: HOP-62 NSCLC
[53] = test system: HOP-92 NSCLC
[54] = test system: SK-MEL-2 melanoma
[55] = test system: SNB-78 CNS
[56] = test system: HCT-116 colon
[57] = test system: SW-620 colon
[58] = test system: OVCAR-5 ovarian

For `COC1CC(OS(=O)(=O)c2ccc(C)cc2)C(OC(=O)c2ccccc2)C(C)O1` (configuration not stated), the GI50 [1] was > 10 µM, the TGI [1] was > 100 µM and the TGI [2] was > 100 µM. The GI50 [3] was > 100 µM, the TGI [3] was > 100 µM and the GI50 [4] was > 100 µM. For the same compound, the TGI [4] was > 100 µM, the GI50 [5] was > 100 µM and the TGI [5] was > 100 µM. For the same compound, the GI50 [6] was > 100 µM, the TGI [6] was > 100 µM and the GI50 [7] was > 100 µM. The TGI [7] was > 100 µM, the GI50 [8] was > 100 µM and the TGI [8] was > 100 µM. The GI50 [9] was > 100 µM, the TGI [9] was > 100 µM and the GI50 [10] was > 100 µM. For the same compound, the TGI [10] was > 100 µM, the TGI [11] was > 10 µM and the GI50 [12] was > 100 µM. The TGI [12] was > 100 µM, the GI50 [13] was > 100 µM and the TGI [13] was > 100 µM. For the same compound, the GI50 [14] was > 100 µM, the TGI [14] was > 100 µM and the TGI [15] was > 100 µM. For the same compound, the TGI [16] was > 100 µM, the GI50 [17] was > 100 µM and the TGI [17] was > 100 µM. The GI50 [18] was > 100 µM, the TGI [18] was > 100 µM and the GI50 [19] was > 100 µM. The TGI [19] was > 100 µM, the TGI [20] was > 100 µM and the GI50 [21] was > 100 µM. For the same compound, the TGI [21] was > 100 µM, the GI50 [22] was > 100 µM and the TGI [22] was > 100 µM. For the same compound, the GI50 [23] was > 100 µM, the TGI [23] was > 100 µM and the GI50 [24] was > 100 µM. The TGI [24] was > 100 µM, the TGI [25] was > 100 µM and the GI50 [26] was > 100 µM. The TGI [26] was > 100 µM, the TGI [27] was > 10 µM and the TGI [28] was > 10 µM. The GI50 [29] was > 100 µM, the TGI [29] was > 100 µM and the GI50 [30] was > 100 µM. The TGI [30] was > 100 µM, the GI50 [31] was > 100 µM and the TGI [31] was > 100 µM. The TGI [32] was > 100 µM, the GI50 [33] was > 100 µM and the TGI [33] was > 100 µM. The GI50 [34] was > 100 µM, the TGI [34] was > 100 µM and the GI50 [35] was > 100 µM. For the same compound, the TGI [35] was > 100 µM, the GI50 [36] was > 100 µM and the TGI [36] was > 100 µM. The GI50 [37] was > 100 µM, the TGI [37] was > 100 µM and the GI50 [38] was > 100 µM. The TGI [38] was > 100 µM, the GI50 [39] was > 100 µM and the TGI [39] was > 100 µM. The GI50 [40] was > 100 µM, the TGI [40] was > 100 µM and the GI50 [41] was > 100 µM. For the same compound, the TGI [41] was > 100 µM, the GI50 [42] was > 100 µM and the TGI [42] was > 100 µM. The GI50 [43] was > 100 µM, the TGI [43] was > 100 µM and the TGI [44] was > 10 µM. For the same compound, the TGI [45] was > 10 µM, the TGI [46] was > 10 µM and the GI50 [47] was > 10 µM. For the same compound, the TGI [47] was > 100 µM, the GI50 [48] was > 100 µM and the TGI [48] was > 100 µM. For the same compound, the GI50 [49] was > 100 µM, the TGI [49] was > 100 µM and the GI50 [50] was > 100 µM. The TGI [50] was > 100 µM, the GI50 [51] was > 100 µM and the TGI [51] was > 100 µM. The GI50 [52] was > 100 µM, the TGI [52] was > 100 µM and the GI50 [53] was > 10 µM. The TGI [53] was > 100 µM, the GI50 [54] was > 100 µM and the TGI [54] was > 100 µM. The GI50 [55] was > 100 µM, the TGI [55] was > 100 µM and the TGI [56] was > 10 µM. The GI50 [57] was > 100 µM, the TGI [57] was > 100 µM and the GI50 [58] was > 100 µM. The TGI [58] was > 100 µM.

`CCOC(=O)C1=C(NC)OC/C1=N\NC(=O)c1ccccc1O` was tested, and the TGI [1] was > 100 µM, the TGI [2] was > 100 µM and the TGI [3] was > 100 µM. For the same compound, the TGI [5] was 70.4 µM, the TGI [6] was 26.1 µM and the TGI [7] was > 100 µM. For the same compound, the TGI [8] was > 100 µM, the TGI [9] was > 100 µM and the TGI [10] was > 100 µM. For the same compound, the TGI [11] was 17.3 µM, the TGI [12] was > 100 µM and the TGI [13] was 54.9 µM. The TGI [14] was > 100 µM, the TGI [15] was 80.5 µM and the TGI [16] was > 100 µM. The TGI [17] was > 100 µM, the TGI [18] was > 100 µM and the TGI [19] was > 100 µM. For the same compound, the TGI [20] was 89.6 µM, the TGI [21] was > 100 µM and the TGI [22] was 83.5 µM. The TGI [23] was > 100 µM, the TGI [24] was > 100 µM and the TGI [25] was > 100 µM. For the same compound, the TGI [26] was > 100 µM, the TGI [27] was > 100 µM and the TGI [29] was > 100 µM. The TGI [30] was > 100 µM, the TGI [31] was 90.5 µM and the TGI [32] was > 100 µM. For the same compound, the TGI [33] was > 100 µM, the TGI [35] was > 100 µM and the TGI [36] was > 100 µM. The TGI [37] was > 100 µM, the TGI [38] was > 100 µM and the TGI [39] was 60.6 µM. The TGI [40] was > 100 µM, the TGI [41] was > 100 µM and the TGI [42] was > 100 µM. For the same compound, the TGI [44] was > 100 µM, the TGI [45] was 98.5 µM and the TGI [46] was > 100 µM. The TGI [47] was > 100 µM, the TGI [48] was 60.6 µM and the TGI [49] was > 100 µM. For the same compound, the TGI [50] was > 100 µM, the TGI [51] was 71.4 µM and the TGI [52] was > 100 µM. The TGI [53] was > 100 µM, the TGI [54] was 48.2 µM and the TGI [55] was > 100 µM. The TGI [56] was 58.3 µM, the TGI [57] was > 100 µM and the TGI [58] was > 100 µM.

From PubChem BioAssay (NCI)
